Assays:
[1] = test system: primary CLL samples (CD19+ and CD5+ cells); experiment: High-throughput dynamic BH3 profiling (HT-DBP): drug-induced apoptotic priming (delta priming), cytochrome c release after BH3 peptide; type: cell-based, human
In short: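 Primary CLL cells (CD19+/CD5+) are treated with the agent or DMSO carrier, then briefly exposed to a fixed concentration of a promiscuous BH3 peptide such as BIM. Mitochondrial cytochrome c release serves as the priming surrogate. Delta priming is drug-treated priming minus DMSO-treated priming, run in high-throughput format.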

[2] = test system: healthy PBMCs (normal cell types CD14, CD19, CD3); experiment: HT-DBP delta priming in healthy donor normal cells; type: cell-based, human; settings: normal peripheral blood mononuclear cells
Method: FIG. 17 provides a heatmap showing median delta priming across healthy donors for the indicated normal cell types (CD14, CD19, and CD3).
The assay was robust, as indicated by an 0.92 median Pearson correlation across replicates (FIGS. 5A, 5B, 6A, and 6B). Additionally, the majority of drugs had greater effect on CLL samples than on healthy PBMCs (p<0.001, paired t-test), supporting their specificity (FIGS. 7A-7C).
Delta-priming was measured for the molecular features listed along the top of FIGS. 14, 17, and 32 using the HT-DBP screen. The molecular features included IGHV subtypes, epitypes, expression subtypes (i.e., expression clusters), mutations in driver genes, and recurrent copy-number events. A feature was included in the heatmap of FIG. 14 only if at least 2 patients in a DBP screen had the feature. Median delta-priming was computed across all BH3 peptides and across all patients within the feature. […] Plots showing molecular features for groups of 65 and 81 patients were also compiled (see FIGS. 19, 20).

`CC1(C)CCC(c2ccc(Cl)cc2)=C(CN2CCN(c3ccc(C(=O)NS(=O)(=O)c4ccc(N[C@H](CCN5CCOCC5)CSc5ccccc5)c(S(=O)(=O)C(F)(F)F)c4)cc3)CC2)C1` [Navitoclax, navitoclax] was tested, and the “priming in CLL groups” value ([1]; CLL sample groups compared with normal PBMCs) was “potentially therapeutically relevant priming”, the “drug-induced apoptotic priming by expression cluster” value ([1]; EC-i) was “more sensitive to navitoclax than any other drug” and the “drug-induced apoptotic priming by expression cluster” value ([1]; EC-u2 (U-CLL)) was “most sensitive”. The direction ([1]; Feature EC-m2) was “Resistant”, the direction ([1]; Feature M-CLL) was “Sensitive” and the direction ([1]; Feature U-CLL) was “Resistant”. The direction ([1]; Feature n-CLL) was “Resistant”, the drug-induced apoptotic priming ([1]; across CLL subtypes, 65 primary CLL samples, 20 hours drug) was “high priming” and the direction ([1]; peptide BAD 0.3 uM, feature EC-m3) was “Sensitive”. The direction ([1]; peptide BAD 0.3 uM, feature EC-u1) was “Resistant”, the direction ([1]; peptide BAD 0.3 uM, feature M-CLL) was “Sensitive” and the direction ([1]; peptide BAD 0.3 uM, feature U-CLL) was “Resistant”. For the same compound, the direction ([1]; peptide BAD 0.3 uM, feature loss_3p21.31) was “Sensitive”, the direction ([1]; peptide BAD 0.3 uM, feature loss_5p15.33) was “Sensitive” and the direction ([1]; peptide BAD 0.3 uM, feature loss_7q36.1) was “Sensitive”. The direction ([1]; peptide BAD 0.3 uM, feature loss_8p) was “Sensitive”, the direction ([1]; peptide BAD 0.3 uM, feature loss_12p13.31a) was “Sensitive” and the direction ([1]; peptide BAD 0.3 uM, feature loss_14q32.12) was “Sensitive”. For the same compound, the direction ([1]; peptide BAD 0.3 uM, feature loss_17p13.3) was “Sensitive”, the direction ([1]; peptide BAD 0.3 uM, feature n-CLL) was “Resistant” and the direction ([1]; peptide BIM 0.01 uM, feature loss_3p21.31) was “Sensitive”. For the same compound, the direction ([1]; peptide BIM 0.01 uM, feature loss_7q36.1) was “Sensitive”, the direction ([1]; peptide BIM 0.01 uM, feature loss_8p) was “Sensitive” and the direction ([1]; peptide BIM 0.01 uM, feature loss_14q32.12) was “Sensitive”. For the same compound, the direction ([1]; peptide MS1 2.5 uM, feature MYD88) was “Sensitive”, the direction ([1]; peptide MS1 2.5 uM, feature gain_16p11.2) was “Sensitive” and the direction ([1]; peptide MS1 2.5 uM, feature loss_3p21.31) was “Sensitive”. For the same compound, the direction ([1]; peptide MS1 2.5 uM, feature loss_7q36.1) was “Sensitive”, the direction ([1]; peptide MS1 2.5 uM, feature loss_8p) was “Sensitive” and the direction ([1]; peptide MS1 2.5 uM, feature loss_14q32.12) was “Sensitive”. The direction ([1]; peptide PUMA 1 uM, feature EC-m2) was “Resistant”, the direction ([1]; peptide PUMA 1 uM, feature EC-m4) was “Sensitive” and the direction ([1]; peptide PUMA 1 uM, feature loss_6q21) was “Resistant”. For the same compound, the direction ([1]; peptide PUMA 1 uM, feature loss_14q32.12) was “Sensitive” and the “priming response in normal cell groups” value [2] was “minimal priming response”.

— US20250255889A1, “METHODS FOR TREATMENT SELECTION FOR CHRONIC LYMPHOCYTIC LEUKEMIA (CLL)” (The Broad Institute, Inc., priority 2022, published 2025)
